Laboratory results as given in PMC4196226 (mBio, 2014).
Converted amounts (≈) assume the structure as drawn.

Key:
Format in all cases: cell-based
A. baumannii = test: MIC assay; settings: Acinetobacter baumannii
P. aeruginosa = test: microbe, parasite or virus in culture; settings: Pseudomonas aeruginosa
B. cepacia = test: MIC assay; settings: Burkholderia cepacia
S. maltophilia = test: MIC assay; settings: Stenotrophomonas maltophilia
K. pneumoniae = test: microbe, parasite or virus in culture; settings: Klebsiella pneumoniae

C[C@@H](O)[C@H]1C(=O)N2C(C(=O)O)=C(S[C@@H]3CN[C@H](C(=O)N(C)C)C3)[C@H](C)[C@H]12 [MPM, meropenem]
MIC90 (A. baumannii): 32 µg/mL (≈ 83.4 µM) | MIC90 (P. aeruginosa): > 64 µg/mL | MIC90 (B. cepacia): 8 µg/mL (≈ 20.9 µM) | MIC90 (S. maltophilia): > 64 µg/mL | MIC90 (K. pneumoniae): 32 µg/mL (≈ 83.4 µM)
